Measured values reported in patent US11045416B2, “Topical compositions comprising Pichia anomala and retinol” (Johnson & Johnson Consumer Inc., priority 2018, dated 2021).

System: Heparin Binding Epidermal Growth Factor (HBEGF)
Assay: HBEGF gene expression in human skin explants by qPCR (Example 3)
Type: cell-based
Details: 4 μL topically, 48 hours; observed minus untreated (100)
Experimental: First, abdominal skin samples were obtained from human adults undergoing abdominoplasty surgery. Informed consent was obtained from each patient, and all experimental steps were approved by an institutional review board (IRB). Subcutaneous fat was carefully removed and skin biopsies of 0.93 cm^2 were prepared under sterile conditions and acclimated in keratinocyte growth media sold under the tradename KGM-GOLD BULLETKIT (Lonza, Walkersville, Md.), with 10% antibiotics under a 5% CO2 humidified atmosphere overnight.
The skin explants were treated topically with 4 μL of the various formulations and left to incubate for 48 hours. An untreated explant sample was used as the control. In the case of combined application of Composition 5 and the 5% solution of Pichia anomala extract, 4 μL of each were applied. At the end of the 48 h, epidermis and dermis were separated by heating. […]
Gene expression assays were performed by real time quantitative polymerase chain reaction (PCR) based on the SyBR green method. qPCR was run on a real time PCR system sold under the tradename CFX96 TOUCH (Bio-Rad Laboratories, Inc., Hercules, Calif.). […] The fold changes were calculated in comparison to the untreated controls and ANOVA statistical test was performed.

## CC1=C(/C=C/C(C)=C/C=C/C(C)=C/CO)C(C)(C)CCC1 [retinol, Retinol]
  HBEGF expression, Observed Normalized to untreated: 291
